Reference: ChEMBL document CHEMBL1122879, “Racemic and optically active 1,3,3-trimethyl-4-phenyl-4-(propionyloxy)piperidine” (1985)

Tests used:
Format in all cases: functional
Rattus norvegicus [1] = experiment: Effective dose for antinociceptive activity in rat tail-withdrawal test i.v.
Mus musculus = experiment: Effective dose for antinociceptive activity in mice hot plate test s.c.; conditions: sc
Rattus norvegicus [2] = organism: Rattus norvegicus; experiment: Effective dose for antinociceptive activity in rats

| SMILES | ED50 (Rattus norvegicus [1]) | ED50 (Mus musculus) | ED50 (Rattus norvegicus [2]) |
| --- | --- | --- | --- |
| CCOC(=O)C1(c2ccccc2)CCN(C)CC1 [MEPERIDINE] | 6.15 mg/kg | 4.1 mg/kg |  |
| CCC(=O)OC1(c2ccccc2)CCN(C)CC1(C)C (racemic) | 0.63 mg/kg | 0.61 mg/kg |  |
| CCC(=O)O[C@@]1(c2ccccc2)CCN(C)CC1(C)C |  |  | 0.5 mg/kg |
